One assay has as its target T1, Olfr347 (Mus musculus, UniProt Q8VGK2).
T1 construct: gene Or1j18; full-length OR, probably N-terminal RHO tag (tag-only control), in HEK293T-derived Hana3A cells with RTP1S and M3-R
T1 sequence (Q8VGK2 1-312): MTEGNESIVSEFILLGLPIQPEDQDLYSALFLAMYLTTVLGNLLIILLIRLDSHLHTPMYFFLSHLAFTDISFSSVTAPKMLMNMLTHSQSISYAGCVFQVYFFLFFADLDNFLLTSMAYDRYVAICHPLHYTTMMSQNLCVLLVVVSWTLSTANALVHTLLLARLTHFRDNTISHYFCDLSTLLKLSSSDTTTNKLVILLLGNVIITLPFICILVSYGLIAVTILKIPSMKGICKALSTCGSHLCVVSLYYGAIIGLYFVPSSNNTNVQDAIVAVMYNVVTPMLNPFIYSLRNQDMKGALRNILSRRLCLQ
Nature of the assay: CRE-luciferase reporter dose-response (Dual-Glo). Type of assay: cell-based. As to conditions: agonist; 1 nM to 1 mM, 4 h stimulation; RTP1S and M3-R co-expressed; Hana3A cells. (Reporter assays use an easily measured gene product as a stand-in for the process of interest.)

In a further assay the target is T2, Olfr538 (Mus musculus, UniProt Q7TRT5).
T2 construct: gene Or13a24; full-length OR, probably N-terminal RHO tag (tag-only control), in HEK293T-derived Hana3A cells with RTP1S and M3-R
T2 sequence (Q7TRT5 1-310): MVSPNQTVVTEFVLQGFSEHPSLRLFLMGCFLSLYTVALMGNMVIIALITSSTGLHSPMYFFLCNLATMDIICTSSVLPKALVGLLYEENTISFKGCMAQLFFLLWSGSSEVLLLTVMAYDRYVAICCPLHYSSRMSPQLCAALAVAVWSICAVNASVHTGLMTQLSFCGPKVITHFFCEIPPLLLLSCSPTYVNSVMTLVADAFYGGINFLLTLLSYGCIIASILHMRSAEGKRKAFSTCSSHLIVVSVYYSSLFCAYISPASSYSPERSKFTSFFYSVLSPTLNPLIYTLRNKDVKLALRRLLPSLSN
Nature of the assay: CRE-luciferase reporter dose-response (Dual-Glo). The class given is cell-based. As to conditions: agonist; 1 nM to 1 mM, 4 h stimulation; RTP1S and M3-R co-expressed; Hana3A cells.

The text below walks through data of publication PMC5404925, “Variation in olfactory neuron repertoires is genetically controlled and environmentally modulated” (eLife, 2017).

SMILES strings stand for the structures.

In the case of `C=C(C)[C@@H]1CC=C(C)C(=O)C1` [(R)-carvone], the “CRE-luciferase reporter dose-response (Dual-Glo)” value on Olfr347 is given as “Dose-response curve for HEK293 cells expressing Olfr347 (black) challenged with increasing concentrations of (R)-carvone”; at Olfr538, “Olfr538 displayed a dose-dependent response to (R)-carvone”.
